Data as given in patent US20130005721A1, “INDOLIZINE INHIBITORS OF 5-LIPOXYGENASE” (PANMIRA PHARMACEUTICALS, LLC, priority 2009, published 2013).

These compounds were tested on human leukocytes (LTB4 production, calcium ionophore stimulated) (assay: Human Leukocyte LTB4 Inhibition Assay). Conditions: LTB4 by ELISA, read-out: LTB4 HLA IC50.
Assay type: cell-based
In short: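 Human peripheral leukocytes (1.25×10^5 cells/ml) were isolated by dextran sedimentation and hypotonic RBC lysis. They were preincubated with drug 5 min at 37 °C, then stimulated 30 min at 37 °C with calcium ionophore […] (working solution 1.25 mM). Supernatant LTB4 was measured by ELISA. IC50 versus vehicle came from nonlinear regression of % inhibition against log concentration.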

Row | IC50 [nM] | Structure (SMILES)
1 | < 300 | CCC(O)(c1nnc(NCc2ccn3c(-c4ccc(F)cc4)c(C(N)=O)cc3c2)o1)C(F)(F)F (single isomer, unassigned) [Compound 1-21, 3-(4-Fluoro-phenyl)-7-{[5-(1-hydroxy-1-trifluoromethyl-propyl)-[1,3,4]oxadiazol-2-ylamino]-methyl}-indolizine-2-carboxylic acid amide]
2 | < 300 | CCC(O)(c1cn(Cc2ccn3c(-c4ccc(F)cc4)c(C(N)=O)cc3c2)nn1)C(F)(F)F (single isomer, unassigned) [Compound 1-10, 3-(4-Fluoro-phenyl)-7-[4-(1-hydroxy-1-trifluoromethyl-propyl)-[1,2,3]triazol-1-ylmethyl]-indolizine-2-carboxylic acid amide]

Same assay, conditions: Leukocyte, LTB4 by ELISA, read-out: LTB4 HLA IC50

Row | IC50 [nM] | Structure (SMILES)
3 | > 1000 | CCC(O)(c1cn(Cc2ccn3c(-c4ccc(OC)nc4)c(C(N)=O)c(C(=O)C(F)(F)F)c3c2)nn1)C(F)(F)F (single isomer, unassigned) [Compound 1-82, 7-[4-(1-Hydroxy-1-trifluoromethyl-propyl)-[1,2,3]triazol-1-ylmethyl]-3-(6-methoxy-pyridin-3-yl)-1-(2,2,2-trifluoro-acetyl)-indolizine-2-carboxylic acid amide]
4 | > 1000 | CCC(O)(c1cn(Cc2ccn3c(-c4cccnc4)c(C(N)=O)cc3c2)nn1)C(F)(F)F (stereo not drawn) [Compound 1-25, 7-[4-(1-Hydroxy-1-trifluoromethyl-propyl)-[1,2,3]triazol-1-ylmethyl]-3-pyridin-3-yl-indolizine-2-carboxylic acid amide]
5 | < 300 | CCC(O)(c1cn(Cc2ccn3c(-c4ccc(OC)nc4)c(C#N)cc3c2)nn1)C(F)(F)F (stereo not drawn) [Compound 1-57, 7-[4-(1-Hydroxy-1-trifluoromethyl-propyl)-[1,2,3]triazol-1-ylmethyl]-3-(6-methoxy-pyridin-3-yl)-indolizine-2-carbonitrile]
6 | > 1000 | CCC(OC(=O)c1ccc([N+](=O)[O-])cc1)(c1cn(Cc2ccn3c(-c4ccc(C)nc4)c(C(N)=O)cc3c2)nn1)C(F)(F)F (single isomer, unassigned) [Compound 1-75, 4-Nitro-benzoic acid 1-{1-[2-carbamoyl-3-(6-methyl-pyridin-3-yl)-indolizin-7-ylmethyl]-1H-[1,2,3]triazol-4-yl}-1-trifluoromethyl-propyl ester]
7 | < 300 | CCOC(=O)c1cc2cc(Cn3cc(C(O)(CC)C(F)(F)F)nn3)ccn2c1-c1cccnc1 (stereo not drawn) [Compound 1-24, 7-[4-(1-Hydroxy-1-trifluoromethyl-propyl)-[1,2,3]triazol-1-ylmethyl]-3-pyridin-3-yl-indolizine-2-carboxylic acid ethyl ester]
8 | > 1000 | CCC(O)(c1cn(Cc2ccn3c(-c4ccc(=O)n(C)c4)c(C(N)=O)cc3c2)nn1)C(F)(F)F (stereo not drawn) [Compound 1-68, 7-[4-(1-Hydroxy-1-trifluoromethyl-propyl)-[1,2,3]triazol-1-ylmethyl]-3-(1-methyl-6-oxo-1,6-dihydro-pyridin-3-yl)-indolizine-2-carboxylic acid amide]
9 | < 300 | CCC(O)(c1cn(Cc2ccn3c(C(C)=O)c(C(=O)OC)cc3c2)nn1)C(F)(F)F (stereo not drawn) [Compound 1-66, 3-Acetyl-7-[4-(1-hydroxy-1-trifluoromethyl-propyl)-[1,2,3]triazol-1-ylmethyl]-indolizine-2-carboxylic acid methyl ester]
10 | < 300 | CCOC(=O)c1cc2cc(Cn3cc(C(O)(CC)C(F)(F)F)nn3)ccn2c1-c1ccc(Cl)cc1 (stereo not drawn) [Compound 1-27, 3-(4-Chloro-phenyl)-7-[4-(1-hydroxy-1-trifluoromethyl-propyl)-[1,2,3]triazol-1-ylmethyl]-indolizine-2-carboxylic acid ethyl ester]
11 | < 300 | CCOC(=O)c1cc2cc(Cn3cc(C(O)(CC)C(F)(F)F)nn3)ccn2c1-c1cncnc1 (stereo not drawn) [Compound 1-73, 7-[4-(1-Hydroxy-1-trifluoromethyl-propyl)-[1,2,3]triazol-1-ylmethyl]-3-pyrimidin-5-yl-indolizine-2-carboxylic acid ethyl ester]
12 | < 300 | CCOC(=O)c1cc2cc(Cn3cc(C(CC)(OC(=O)c4ccc([N+](=O)[O-])cc4)C(F)(F)F)nn3)ccn2c1 (single isomer, unassigned) [Compound 1-86, 7-{4-[1-(4-Nitro-benzoyloxy)-1-trifluoromethyl-propyl]-[1,2,3]triazol-1-ylmethyl}-indolizine-2-carboxylic acid ethyl ester]
